# Experimental data: patent US11964973B2 (priority 2019, dated 2024)
# System: human venous whole blood, CD8 positive population (pERK)
# Assay: DGK human whole blood pERK assay
# Format: cell-based
# Conditions: Homo sapiens, CD8 positive, human whole blood pERK; read-out: DGK HWB
# Outline: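 Read-out is the pERK-positive fraction of CD8+ cells measured by flow cytometry. Donor venous blood (heparin) saw compound for one hour at 37° C before a 15-minute anti-CD3 challenge (1 μg/mL final) with cross-linking anti-mouse IgG.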
row,Compound,EC50 [nM]
1,"CC(C)c1cccc(O[C@H]2CCN(c3cc(=O)n(C)c4ccc(C#N)nc34)C[C@H]2C)n1 (single isomer, unassigned) [Example 216]",14000
2,"C[C@H]1CN(c2cc(=O)n(C)c3ccc(C#N)nc23)[C@@H](C)C[C@H]1Oc1cccc(C#N)c1 [Example 314, 8-((2S,4R,5S)-4-(3-cyanophenoxy)-2,5-dimethylpiperidin-1-yl)-5-methyl-6-oxo-5,6-dihydro-1,5-naphthyridine-2-carbonitrile]",16000
3,"C[C@H]1CN(c2cc(=O)n(C)c3ccc(C#N)nc23)[C@@H](C)C[C@H]1Oc1cccc(Cl)c1 [Example 313, 8-((2S,4R,5S)-4-(3-chlorophenoxy)-2,5-dimethylpiperidin-1-yl)-5-methyl-6-oxo-5,6-dihydro-1,5-naphthyridine-2-carbonitrile]",7100
4,"CC1CN(c2cc(=O)n(C)c3ccc(C#N)nc23)CCC1N(C)Cc1ccc(F)cc1 (single isomer, unassigned) [Example 327, -(4-((4-fluorobenzyl)(methyl)amino)-3-methylpiperidin-1-yl)-5-methyl-6-oxo-5,6-dihydro-1,5-naphthyridine-2-carbonitrile]",1900
5,"CCO[C@H]1CN(c2cc(=O)n(C)c3ccc(C#N)nc23)CC[C@H]1Oc1cccc(C(F)(F)F)c1 (relative stereo) [Example 369, cis-8-(3-Ethoxy-4-(3-(trifluoromethyl)phenoxy)piperidin-1-yl)-5-methyl-6-oxo-5,6-dihydro-1,5-naphthyridine-2-carbonitrile]",620
6,"CCO[C@H]1CN(c2cc(=O)n(C)c3ccc(C#N)nc23)CC[C@@H]1Oc1ccc(OC(C)C)cc1 [Example 347, 8-((3S,4S)-3-ethoxy-4-(4-isopropoxyphenoxy)piperidin-1-yl)-5-methyl-6-oxo-5,6-dihydro-1,5-naphthyridine-2-carbonitrile]",350

# Same assay, conditions: Homo sapiens, CD8 positive, read-out: DGK HWB, human whole blood pERK
row,Compound,EC50 [nM]
1,"CC[C@@H]1CN(c2nc(=O)n(C)c3ccc(C#N)nc23)[C@@H](C)C[C@@H]1Oc1ccc(OC(C)C)cn1 [Example 307, 4-((2S,4S,5R)-5-ethyl-4-((5-isopropoxypyridin-2-yl)oxy)-2-methylpiperidin-1-yl)-1-methyl-2-oxo-1,2-dihydropyrido[3,2-d]pyrimidine-6-carbonitrile]",170
2,"CC[C@@H]1CN(c2cc(=O)n(C)c3ccc(C#N)nc23)[C@@H](C)C[C@H]1Oc1ccc(OC(C)C)cn1 [Example 296, 8-((2S,4R,5R)-5-ethyl-4-((5-isopropoxypyridin-2-yl)oxy)-2-methylpiperidin-1-yl)-5-methyl-6-oxo-5,6-dihydro-1,5-naphthyridine-2-carbonitrile]",13000
3,"CC(C)Oc1ccc(OC2C[C@H](C)N(c3nc(=O)n(C)c4ccc(C#N)nc34)C[C@@H]2C)nc1 (mixture of isomers) [Example 243, (±)-Cis-(-4-((5-isopropoxypyridin-2-yl)oxy)-2,5-dimethylpiperidin-1-yl)-1-methyl-2-oxo-1,2-dihydropyrido[3,2-d]pyrimidine-6-carbonitrile]",590
4,"CC[C@@H]1CN(c2nc(=O)n(C)c3ccc(C#N)nc23)[C@@H](C)C[C@H]1Oc1ccc(OC(C)C)cn1 [Example 301, 4-((2S,4R,5R)-5-ethyl-4-((5-isopropoxypyridin-2-yl)oxy)-2-methylpiperidin-1-yl)-1-methyl-2-oxo-1,2-dihydropyrido[3,2-d]pyrimidine-6-carbonitrile]",11000
5,"CC[C@@H]1CN(c2nc(=O)n(C)c3ccc(C#N)nc23)[C@H](C)C[C@H]1Oc1ccc(OC(C)C)cn1 [Example 303, 4-((2R,4R,5R)-5-ethyl-4-((5-isopropoxypyridin-2-yl)oxy)-2-methylpiperidin-1-yl)-1-methyl-2-oxo-1,2-dihydropyrido[3,2-d]pyrimidine-6-carbonitrile]",380
6,"CC1CN(c2c(C#N)c(=O)n(C)c3ccc(C#N)nc23)CCC1N(C)C(=O)c1ccc(C(F)(F)F)cc1 (single isomer, unassigned) [Example 292, N-(1-(3,6-dicyano-1-methyl-2-oxo-1,2-dihydro-1,5-naphthyridin-4-yl)-3-methylpiperidin-4-yl)-N-methyl-4-(trifluoromethyl)benzamide]",20000
7,"C[C@@H]1CN(c2nc(=O)n(C)c3ccc(C#N)nc23)[C@@H](C)CC1Oc1cccc(C(F)(F)F)c1 (stereo in doubt) [Example 252, 4-((2S,5R)-2,5-dimethyl-4-(3-(trifluoromethyl)phenoxy)piperidin-1-yl)-1-methyl-2-oxo-1,2-dihydropyrido[3,2-d]pyrimidine-6-carbonitrile]",3500
8,"CCO[C@H]1CN(c2cc(=O)n(C)c3ccc(C#N)nc23)CC[C@@H]1Oc1ccc(C(F)(F)F)cn1 (relative stereo) [Example 367, trans-8-(3-Ethoxy-4-((5-(trifluoromethyl)pyridin-2-yl)oxy)piperidin-1-yl)-5-methyl-6-oxo-5,6-dihydro-1,5-naphthyridine-2-carbonitrile]",640
9,"CC[C@@H]1CN(c2cc(=O)n(C)c3ccc(C#N)nc23)[C@H](C)C[C@@H]1Oc1ccc(OC(C)C)cn1 [Example 298, 8-((2R,4S,5R)-5-ethyl-4-((5-isopropoxypyridin-2-yl)oxy)-2-methylpiperidin-1-yl)-5-methyl-6-oxo-5,6-dihydro-1,5-naphthyridine-2-carbonitrile]",910

# Same assay, conditions: human whole blood pERK; read-out: DGK HWB
row,Compound,EC50 [nM]
1,"CC(C)c1ccc(O[C@H]2CCN(c3cc(=O)n(C)c4ccc(C#N)nc34)C[C@H]2C)nc1 (single isomer, unassigned) [Example 207]",12000
2,"CCO[C@H]1CN(c2cc(=O)n(C)c3ccc(C#N)nc23)CC[C@@H]1Oc1cccc(OC(F)(F)F)c1 [Example 351, 8-((3S,4S)-3-ethoxy-4-(3-(trifluoromethoxy)phenoxy)piperidin-1-yl)-5-methyl-6-oxo-5,6-dihydro-1,5-naphthyridine-2-carbonitrile]",210
3,"CCO[C@H]1CN(c2cc(=O)n(C)c3ccc(C#N)nc23)CC[C@@H]1Oc1ccccc1C(F)(F)F [Example 346, 8-((3S,4S)-3-ethoxy-4-(2-(trifluoromethyl)phenoxy)piperidin-1-yl)-5-methyl-6-oxo-5,6-dihydro-1,5-naphthyridine-2-carbonitrile]",20000
4,"CCO[C@H]1CN(c2cc(=O)n(C)c3ccc(C#N)nc23)CC[C@@H]1Oc1ccc(C(F)(F)F)cc1 [Example 344, 8-((3S,4S)-3-ethoxy-4-(4-(trifluoromethyl)phenoxy)piperidin-1-yl)-5-methyl-6-oxo-5,6-dihydro-1,5-naphthyridine-2-carbonitrile]",20000
5,"CCO[C@H]1CN(c2cc(=O)n(C)c3ccc(C#N)nc23)CC[C@H]1Oc1ccc(OC(C)C)cn1 (relative stereo) [Example 371, cis-8-(3-Ethoxy-4-((5-isopropoxypyridin-2-yl)oxy)piperidin-1-yl)-5-methyl-6-oxo-5,6-dihydro-1,5-naphthyridine-2-carbonitrile]",3600
6,"CCO[C@H]1CN(c2cc(=O)n(C)c3ccc(C#N)nc23)CC[C@@H]1Oc1cc(C(F)(F)F)ccn1 [Example 366, 8-((3S,4S)-3-ethoxy-4-((4-(trifluoromethyl)pyridin-2-yl)oxy)piperidin-1-yl)-5-methyl-6-oxo-5,6-dihydro-1,5-naphthyridine-2-carbonitrile]",20000
7,"CCO[C@H]1CN(c2cc(=O)n(C)c3ccc(C#N)nc23)CC[C@@H]1Oc1cccc(OC(F)(F)F)c1 [Example 352, 8-((3S,4S)-3-ethoxy-4-(3-(trifluoromethoxy)phenoxy)piperidin-1-yl)-5-methyl-6-oxo-5,6-dihydro-1,5-naphthyridine-2-carbonitrile]",12000
8,CCO[C@H]1CN(c2cc(=O)n(C)c3ccc(C#N)nc23)CC[C@@H]1Oc1nc2ccccc2s1 [Example 374],20000

# Same assay, conditions: human whole blood, CD8 positive population, anti-CD3 stimulation; top concentration 20 μM; read-out: DGK HWB (human whole blood pERK)
row,Compound,EC50 [nM]
1,"CCO[C@H]1CN(c2cc(=O)n(C)c3ccc(C#N)nc23)CC[C@@H]1Oc1ccc(OC(C)C)cn1 (relative stereo) [Example 397, trans-8-(4-((5-Isopropoxypyridin-2-yl)oxy)-3-ethoxypiperidin-1-yl)-5-methyl-6-oxo-5,6-dihydro-1,5-naphthyridine-2-carbonitrile]",140

# Same assay, conditions: human whole blood, CD8 positive population; read-out: DGK HWB pERK IC50
row,Compound,IC50 [nM]
1,"CC[C@@H]1CN(c2cc(=O)n(C)c3ccc(C#N)nc23)CC[C@H]1Oc1ccc(C(F)(F)F)cc1 (single isomer, unassigned) [Example 147]",610
2,"CC[C@@H]1CN(c2cc(=O)n(C)c3ccc(C#N)nc23)CC[C@H]1Oc1ccc(C(C)C)cc1 (single isomer, unassigned) [Example 144]",880

# Same assay, conditions: read-out: DGK HWB; human whole blood pERK
row,Compound,EC50 [nM]
1,"CC(C)Oc1ccc(OC2C[C@@H](C)N(c3nc(=O)n(C)c4ccc(C#N)nc34)C[C@@H]2C)nc1 (stereo partly drawn) [Example 249, 4-((2R,5S)-4-((5-isopropoxypyridin-2-yl)oxy)-2,5-dimethylpiperidin-1-yl)-1-methyl-2-oxo-1,2-dihydropyrido[3,2-d]pyrimidine-6-carbonitrile]",490
2,"C[C@H]1CN(c2cc(=O)n(C)c3ccc(C#N)nc23)[C@@H](C)CC1N(C)Cc1ccc(F)cc1 (single isomer, unassigned) [Example 334]",20000

# System: Human venous whole blood (IFN-γ)
# Assay: Human whole blood IFN-γ assay
# Format: cell-based
# Conditions: human whole blood IFN-γ; read-out: INFg Whole Blood
# Procedure: Assay 10: Human Whole Blood IFN-γ Assay
# Human venous whole blood (22.5 μL per well), obtained from healthy donors, was pre-treated with compounds for one hour at 37° C. in a humidified 95% air/5% CO2 incubator. The blood was stimulated with 2.5 μL anti-human CD3 and anti-CD28 mAb at a final concentration of 1 μg/mL each for 24 hours at 37° C. IFN-γ in the supernatants was measured using AlphLISA kit (Cat #AL217).
row,Compound,EC50 [nM]
1,"CC(C)c1cccc(O[C@H]2CCN(c3cc(=O)n(C)c4ccc(C#N)nc34)C[C@H]2C)n1 (single isomer, unassigned) [Example 216]",1400
2,"CC(C)c1ccc(O[C@H]2CCN(c3cc(=O)n(C)c4ccc(C#N)nc34)C[C@H]2C)nc1 (single isomer, unassigned) [Example 207]",1300

# Same assay, conditions: human whole blood, anti-CD3 plus anti-CD28, 24 hours; read-out: INFg Whole Blood Normalized Agonist EC50
row,Compound,EC50 [nM]
1,"CC[C@@H]1CN(c2cc(=O)n(C)c3ccc(C#N)nc23)CC[C@H]1Oc1ccc(C(F)(F)F)cc1 (single isomer, unassigned) [Example 147]",1200
2,"CC[C@@H]1CN(c2cc(=O)n(C)c3ccc(C#N)nc23)CC[C@H]1Oc1ccc(C(C)C)cc1 (single isomer, unassigned) [Example 144]",800
